Reference: patent EP1218012B1, “USE OF ALPROSTADIL (PROSTAGLANDIN E1) FOR PRODUCING A MEDICAMENT FOR ANGIONEOGENESIS” (Mehrabi, Mohammad Reza, priority 1999, dated 2001)

Columns and labels:
VEGF = experiment: VEGF-positive capillaries in explanted hearts (immunohistochemistry); assay type: in vivo, Patienten
Text: Um die Frage zu beantworten, ob nun die Alprostadil (PGE1)-Infusionstherapie […] HTX die […] von Patienten mit vorangegangener Alprostadil (PGE 1)-Infusionstherapie und von Patienten ohne alprostadil (PGE 1)-Therapie immunhistochemisch untersucht und die […]. Jedes […] Herz wurde in drei gleich große Stücke, nämlich in Spitze, mittleren und […]. Die […] transmural durch den […] immunohistochemische Analysen wurde sofort […] in Formaldehyd nach der üblichen Methode konserviert. Die […] wurde getrennt im Subepicardium, Myocardium und dem Subendocardium bestimmt. Die Bestimmung […] 1,mm^2 wurde getrennt anhand von anti-CD34, von Willebrand-Faktor (vwf), vascular-endothelial-growth-factor (VEGF) , anti-Ki 67 (MIB 1) und Sirius Rot, immunhistochemisch […]. VEGF ist beschrieben als spezifischer Wachstumsfaktor für Endothelzellen. Alprostadil (PGE 1)-behandelte Patienten zeigten bedeutend mehr VEGF-positive […] als die Kontrollgruppe (Fig.4) in allen drei untersuchten Abschnittsebenen (Subepicardium: 101,2 ± 5,5/mm^2 gegenüber 38.1 ± 7,2-VEGF-positive Zellen/mm^2, p <0,0001; Myocardium 76,2 ± 4,9/mm^2 gegenüber 20,6 ± 4,9/mm^2, p <0,0001; Subendocardium: 89,1 ± 5,7/mm^2 gegenüber 27,8 ± 5,1/mm^2, p <0,0001). Die Ergebnisse sind auch in Fig.6D, 8E und 8F dargestellt.

CD 34 = experiment: Anti-CD34 reactive endothelium in explanted hearts (immunohistochemistry); assay type: in vivo, Patienten
Text: Um die Frage zu beantworten, ob nun die Alprostadil (PGE1)-Infusionstherapie […] HTX die […] von Patienten mit vorangegangener Alprostadil (PGE 1)-Infusionstherapie und von Patienten ohne alprostadil (PGE 1)-Therapie immunhistochemisch untersucht und die […]. Jedes […] Herz wurde in drei gleich große Stücke, nämlich in Spitze, mittleren und […]. Die […] transmural durch den […] immunohistochemische Analysen wurde sofort […] in Formaldehyd nach der üblichen Methode konserviert. Die […] wurde getrennt im Subepicardium, Myocardium und dem Subendocardium bestimmt. Die Bestimmung […] 1,mm^2 wurde getrennt anhand von anti-CD34, von Willebrand-Faktor (vwf), vascular-endothelial-growth-factor (VEGF) , anti-Ki 67 (MIB 1) und Sirius Rot, immunhistochemisch […]. CD 34 wird von allen Endothelzellen im normalen Gewebe exprimiert. CD 34 wird auch zum Nachweis von Endothel bzw. -zellen benutzt. Patienten nach einer Alprostadil (PGE […] Endothel (Fig.1) auf als die Kontrollgruppe (Subepicardium: 599,22 ± 107,17 mm^2 gegenüber 322,89 ± 160,64 mm^2-Zellen, p <0,001; Myocardium: 482,11 ± 79,86 mm^2 vs. 227,22 ± 49,30 mm^2 , p<0.0001; Subendocardium: 482,11 ± 79,86 mm^2 gegenüber 227,22 ± 49,30 mm^2, p <0,0001); Subendocardium: 551,67 ± 107.74 mm^2 gegenüber 308,56 ± 193.86 mm^2, p < 0,01). Die Ergebnisse sind auch in Fig.6A, 8A und 8B dargestellt.

[1] = tested on: Patienten mit dilatativer CMP; experiment: Fibrosis degree and heart muscle fraction (Sirius red staining) in explanted hearts; assay type: in vivo; settings: patients with dilated CMP
Text: Die […] wurde getrennt im Subepicardium, Myocardium und dem Subendocardium bestimmt. Die Bestimmung […] 1,mm^2 wurde getrennt anhand von anti-CD34, von Willebrand-Faktor (vwf), vascular-endothelial-growth-factor (VEGF) , anti-Ki 67 (MIB 1) und Sirius Rot, immunhistochemisch […]. Die Bestimmung des Fibrosegrads und des Herzmuskelanteils bei Alprostadil (PGE 1)-behandelten Patienten (Fig.5) gegenüber der Kontrollgruppe zeigte, dass die Alprostadil (PGE1)- Infusionstherapie den Fibrosegrad bei […] CMP […] (15,35 ± 10,32% gegenüber 6,89 ± 3,59%, p <0,05, bei einem vergleichbaren Herzmuskelanteil (72,69 ± 5,25% gegenüber 68,75 ± 6,23%).

Tierversuche = settings: infused directly into hepatic veins, treated group; cited from earlier work
[2] = tested on: Patienten mit chronischer Herzinsuffizien; settings: compared with the dobutamine-treated group; cited from earlier work
[3] = tested on: Patienten mit akutem Leberversagen; settings: treatment begun only 10 days after onset of clinical symptoms; cited from earlier work
Patienten = experiment: Hypertrophy: muscle count and percent muscle fraction per mm^2; assay type: in vivo; settings: treated patients
Text: In PGE1-behandelten Patienten wurden Muskelzahl/mm^2 mit prozentuellem Muskelanteil/mm^2 bestimmt und mit unbehandelten Patienten und gesunden Kontrollen verglichen. Die Ergebnisse sind in der nachfolgenden Tabelle angegeben.

Patienten mit CMP [4] = experiment: Clinical infusion therapy study in CMP patients awaiting heart transplantation (haemodynamics, clinical state, maximum tolerated dose); assay type: in vivo
Text: Patienten mit CMP wurden für eine Herztranslation (HTX) angemeldet und medikamentös mit ACE-Hemmern, β-Blocker, Diuretika und Digitalis behandelt.
In einer vorangegangenen Studie erhielten mehrere Patienten mit Kardiomyopathie, darunter 9 Patienten mit dilatativer CMP vor einer HTX zusätzlich eine Alprostadil (PGE 1)-Infusionstherapie.
Die Einschlusskriterien für die Alprostadil (PGE 1)-Studie waren: • a. Patienten waren in ihrer täglichen Aktivität schwerwiegend eingeschränkt, obwohl sie eine maximale oralmedikamentöse Therapie mit ACE-Hemmer (Angiotensin-Converting-Enzym-Antagonisten), Diuretika und Digitalis bekamen. • b. Die Hämodynamik der Patienten zeigte einen niedrigen Herz-Index (< 2,5 L/min/m2) und einen höheren PCWP (pulmonory capillary wedge pressure) > 20 mm HG). • c. CMP-Patienten, die einen erhöhten peripheren Gefäßwiderstand aufweisen.
Die Infusionstherapie erfolgte unter laufender Messung der hämodynamischen Parameter. […] In dieser klinisch-experimentellen Studie wurde die Alprostadil (PGE1)-Infusionstherapie bei Patienten im Endstadium der Herizinsuffizienz im Sinne einer adjuvanten Therapie bis zur HTX verwendet.
Die Alprostadil (PGE1)-Infusionen erfolgten über einen zentralen Rechtsherzkatheter (Hickman-Katheter) mit einer anfänglichen Dosis von 2,5 ng/kg/min, die dann bis zur maximal tolerierten Dosis (MTD) gesteigert wurde. MTD war die Dosis, bei der eine der folgenden Nebenwirkungen auftraten: Muskelschmerzen, Knochenschmerzen, Blutdruckabfall, Übelkeit, Erbrechen, Durchfall, Kopfschmerzen oder andere Nebvenwirkungen. Unter der MTD (29 ± 1 ng/kg/min) wurden die hämodynamischen Parameter dokumntiert. Die MTD wurde in den folgenden 12 Stunden halbiert und nach der Stabilisierung der Hämodynamik wurde die Therapie mit einer tragbaren Pumpe zu Hause fortgesetzt.

[5] = tested on: Von Willebrand Faktor (vWf); experiment: Anti-vWf (factor VIII related antigen) reactive endothelium in explanted hearts (immunohistochemistry); assay type: in vivo, Patienten
Text: Um die Frage zu beantworten, ob nun die Alprostadil (PGE1)-Infusionstherapie […] HTX die […] von Patienten mit vorangegangener Alprostadil (PGE 1)-Infusionstherapie und von Patienten ohne alprostadil (PGE 1)-Therapie immunhistochemisch untersucht und die […]. Jedes […] Herz wurde in drei gleich große Stücke, nämlich in Spitze, mittleren und […]. Die […] transmural durch den […] immunohistochemische Analysen wurde sofort […] in Formaldehyd nach der üblichen Methode konserviert. Die […] wurde getrennt im Subepicardium, Myocardium und dem Subendocardium bestimmt. Die Bestimmung […] 1,mm^2 wurde getrennt anhand von anti-CD34, von Willebrand-Faktor (vwf), vascular-endothelial-growth-factor (VEGF) , anti-Ki 67 (MIB 1) und Sirius Rot, immunhistochemisch […] Marker wurde Faktor VIII immunhistochemisch untersucht. Die Herzen von CMP-Patienten nach Alprostadil(PGE 1)-Infusionstherapie zeigten bedeutend […] Endothelien (Abb.2) verglichen mit der Kontrollgruppe (Subepicardium: 425,56 ± 134.17 mm^2 gegenüber 192,22 ± 77,88 mm^2-Zellen, p <0,001; Myocardium: 360,00 ± 52,31 mm^2 gegenüber 159,89 ± 61.00 mm^2 p <0,0001; Subendocardium: 408,00 ± 80,00 mm^2 gegenüber 163,89 ± 47,52 mm^2, p <0,0001). Die Ergebnisse sind auch in Fig.6B, 8C und 8D dargestellt.

MIB-1 (anti-Ki67) = MIB-1 (anti-Ki67) positive cells in explanted hearts (proliferation marker); assay type: in vivo, Patienten
Text: Um die Frage zu beantworten, ob nun die Alprostadil (PGE1)-Infusionstherapie […] HTX die […] von Patienten mit vorangegangener Alprostadil (PGE 1)-Infusionstherapie und von Patienten ohne alprostadil (PGE 1)-Therapie immunhistochemisch untersucht und die […]. Jedes […] Herz wurde in drei gleich große Stücke, nämlich in Spitze, mittleren und […]. Die […] transmural durch den […] immunohistochemische Analysen wurde sofort […] in Formaldehyd nach der üblichen Methode konserviert. Die […] wurde getrennt im Subepicardium, Myocardium und dem Subendocardium bestimmt. Die Bestimmung […] 1,mm^2 wurde getrennt anhand von anti-CD34, von Willebrand-Faktor (vwf), vascular-endothelial-growth-factor (VEGF) , anti-Ki 67 (MIB 1) und Sirius Rot, immunhistochemisch […]. MIB-1 (anti-Ki67), ist ein Antikörper, der nur […], die nicht in der GO-Phase des Zellzyklus sind und wird üblicher Weise als Mitose- oder Proliferationsmarker eingesetzt. Er zeigt […] Reaktion bei mitotischen Zellen. Bei der Gruppe der Patienten mit Alprostadil(PGE 1)-Infusionstherapie war die Anzahl der MIB-1 positiven Zellen (Fig.3) in allen […] des Herzmuskels deutlich höher verglichen mit der Kontrollgruppe: (Subepicardium: 20,22 ± 4,87 pro mm^2 gegenüber 8,11 ± 2,67 pro mm^2, p <0,0001; Myocardium: 15,44 ± 4,64 pro mm^2 gegenüber 5,78 ± 2,11 pro mm^2, p <0,0001; Subendocardium: 17,84 ± 4,23 pro mm^2 gegenüber 6,89 ± 2,21 pro mm2). Die Ergebnisse sind auch in Fig.6C, 8G und 8H dargestellt.

Patienten mit CMP [6] = experiment: Capillary density in transmural sections of explanted hearts (immunohistochemistry); assay type: in vivo; settings: for Kapillardichte: explanted hearts after infusion therapy
Text: Um die Frage zu beantworten, ob nun die Alprostadil (PGE1)-Infusionstherapie […] HTX die […] von Patienten mit vorangegangener Alprostadil (PGE 1)-Infusionstherapie und von Patienten ohne alprostadil (PGE 1)-Therapie immunhistochemisch untersucht und die […]. Jedes […] Herz wurde in drei gleich große Stücke, nämlich in Spitze, mittleren und […]. Die […] transmural durch den […] immunohistochemische Analysen wurde sofort […] in Formaldehyd nach der üblichen Methode konserviert. Die […] wurde getrennt im Subepicardium, Myocardium und dem Subendocardium bestimmt. Die Bestimmung […] 1,mm^2 wurde getrennt anhand von anti-CD34, von Willebrand-Faktor (vwf), vascular-endothelial-growth-factor (VEGF) , anti-Ki 67 (MIB 1) und Sirius Rot, immunhistochemisch […]. Die […] Subepicardium, Myocardium und Subendocardium von transmuralen […] wurde quantitativ bestimmt und verglichen. Patienten, die eine Alprostadil (PGE 1)- Infusionen […]. Die […] Subepicardium, Myocardium und Subendocardium von der Kontrollgruppe betrug 608,56 ± 91,32 […]), 542,44 ± 197,20 […]^2 (sEndo), und 452,22 - 101,99 […]^2 (Myo) in den drei transmuralen-[…]. Alprostadil (PGE 1)-behandelte Patienten hatten im Vergleich dazu mit 1168,11 ± 165,04 […]), 1066,00 ± 94,63 […]^2 (SEndo), und 974,56 ± 87,12 […]^2 (Myocard), ungefähr 50% […]. Untersuchung hinsichtlich spezifischer immunohistochemischer […]: […]

Q: Which results are given for `CCCCC[C@H](O)/C=C/[C@H]1[C@H](O)CC(=O)[C@@H]1CCCCCCC(=O)O` [Alprostadil, Prostaglandin E1]?
A: VEGF-positive Kapillaren/mm^2 (VEGF; Myocardium): 76,2 ± 4,9 /mm^2; VEGF-positive Kapillaren/mm^2 (VEGF; Subendocardium): 89,1 ± 5,7 /mm^2; VEGF-positive Kapillaren/mm^2 (VEGF; Subepicardium): 101,2 ± 5,5 /mm^2; anti-CD34 reaktives Endothel (CD 34; Myocardium): 482,11 ± 79,86 mm^2; anti-CD34 reaktives Endothel (CD 34; Subendocardium): 482,11 ± 79,86 mm^2; anti-CD34 reaktives Endothel (CD 34; Subepicardium): 599,22 ± 107,17 mm^2; Fibrosegrad [1]: 6,89 ± 3,59%; Herzmuskelanteil [1]: 72,69 ± 5,25%; Leukozyten (serologisch) (Tierversuche): mehr Leukozyten; Nierenfunktion (Paraaminohippurat-Clearance, Iothalamat-Clearance) [2]: bessere Nierenwerte; hämodynamischer Effekt [2]: besseren hämodynamischen Effekt; Wirkung bei akutem Leberversagen [3]: keine Wirkung; % Muskelanteil/mm^2 (Patienten): 74,9 ± 3,7%; Muskelzahl/mm^2 (Patienten): 982,68 ± 141,43 /mm^2; klinischer Zustand (Patienten mit CMP [4]; end-stage heart failure, with increased ejection fraction and cardiac output, reduced NYHA stage and pulmonary circulation pressures): deutliche Verbesserung; maximal tolerierte Dosis (MTD) (Patienten mit CMP [4]; infusion via central right-heart catheter, escalated from 2,5 ng/kg/min until side effects occurred): 29 ± 1 ng/kg/min; hämodynamische Parameter im Vergleich zu den Ausgangswerten (Patienten mit CMP [4]; under infusion therapy): deutliche Verbesserung; anti-vWf reaktive Endothelien ([5]; Myocardium): 360,00 ± 52,31 mm^2; anti-vWf reaktive Endothelien ([5]; Subendocardium): 408,00 ± 80,00 mm^2; Anzahl der MIB-1 positiven Zellen (MIB-1 (anti-Ki67); Myocardium): 15,44 ± 4,64 pro mm^2; Anzahl der MIB-1 positiven Zellen (MIB-1 (anti-Ki67); Subendocardium): 17,84 ± 4,23 pro mm^2; Anzahl der MIB-1 positiven Zellen (MIB-1 (anti-Ki67); Subepicardium): 20,22 ± 4,87 pro mm^2; Kapillardichte (Patienten mit CMP [6]; Myocardium (Myocard)): 974,56 ± 87,12 Kapillaren/mm^2; Kapillardichte (Patienten mit CMP [6]; Subendocardium (SEndo)): 1066,00 ± 94,63 Kapillaren/mm^2; Kapillardichte (Patienten mit CMP [6]; Subepicardium (sEpi)): 1168,11 ± 165,04 Kapillaren/mm^2; mehr Kapillaren als die Kontrollgruppe (Patienten mit CMP [6]; treated patients versus control group): ~50%
